According to US20240050563A1, “Combination Treatment of Cancer” (Ares Trading S.A., priority 2020, published 2024):

System: MC38 colon carcinoma cells
Assay: Syngeneic MC38 tumor model (tumor volume monitoring)
Assay type: in vivo, C57/BL6 mice
Details: MCT4 inhibitor 30 mg/kg p.o. qd, bintrafusp alfa 492 μg/animal i.v. day 0, 3, 6; for % T/C: Day 20, versus Group 1 control (vehicle + mutant non-binding anti-PD-L1 antibody); for reduction of tumor growth: MC38 tumor-bearing C57/BL6 mice, study end day 20
Protocol: MC38 colon carcinoma cells were obtained from Scripps Research Institute. Cells were tested and verified to be free of adventitious viruses and mycoplasma.
MC38 cells were cultured in DMEM containing 4.5 g/L D-glucose, 2 mM glutamine, and 110 mg/L sodium pyruvate and supplemented with 10% FBS. All cells were maintained at 37° C. and 5% CO2 in aseptic conditions. Cells were passaged upon reaching 50-85% confluence for a total of 2 to 15 passages prior to in vivo implantation. Cells were harvested by trypsinization with TrypLE Express and viable cell counts were determined using a Countess or […] cell counter and trypan blue exclusion staining.
Female C57/BL6 mice were obtained from Charles River Laboratories. They were inoculated (s.c. in the right dorsal flank) with 1×10^6 MC38 cells in 0.1 mL sterile PBS. Treatment was initiated when tumors reached an average volume of approximately 50-80 mm^3 (Day 0).
Test groups of the MC38 tumor-bearing mice (8 animals in each group) were treated with both vehicle (20% Kleptose (HPB) in 50 mM Phosphate pH 7.4 buffer) and a mutant, non-binding anti-PD-L1 antibody (Group 1, control), the MCT4 inhibitor described as Compound 367 in WO 2020/127960 (5-{2-[5-chloro-2-(5-ethoxyquinoline-8-sulfonamido)phenyl]ethynyl}-4-methoxypyridine-2-carboxylic acid; commercially available from, e.g., Selleck Chemicals) (Group 2), bintrafusp alfa (Group 3), or a combination of Compound 367 and bintrafusp alfa (Group 4). In Group 1 (Control Group) the vehicle was administered at 10 ml/kg animal weight, p.o. once daily and Mut PD-L1 i.v. at day 0, 3, and 6 (400 μg/animal). In Groups 2 and 4 the MCT4 inhibitor was administered at 30 mg/kg animal weight (p.o. administration, once per day (qd)). In Groups 3 and 4 bintrafusp alfa was administered 492 μg/animal at day 0, 3, and 6 (i.v. administration). At day 20 the study was terminated. Efficacy of the treatment was evaluated by monitoring tumor volume over the course of the study.

| Molecule | % T/C | reduction of tumor growth |
| --- | --- | --- |
| CCOc1ccc(S(=O)(=O)Nc2ccc(Cl)cc2C#Cc2cnc(C(=O)O)cc2OC)c2ncccc12 [MCT4 inhibitor, 5-{2-[5-chloro-2-(5-ethoxyquinoline-8-sulfonamido)phenyl]ethynyl}-4-methoxypyridine-2-carboxylic acid] | 79.1% | 20% |
| bintrafusp alfa: anti-PD-L1:TGFβRII fusion protein, CAS 1918149-01-5; light chain SEQ ID NO: 7, heavy chain SEQ ID NO: 8 | 79.7% | 20% |
